Assay results: patent US12303505B2, “Tumor-treating pharmaceutical composition” (Eisai R&D Management Co., Ltd., priority 2017, dated 2025)
“Also recorded” adds a separate entry of the source. Where a name gives a salt, the structure may show the parent alone.

Legend:
Assay type in all cases: in vivo
[1] = system: human anaplastic thyroid cancer cell line HTC/C3; assay: Antitumor effect in human anaplastic thyroid cancer cell line HTC/C3 transplantation model, nude mice
Procedure: A human anaplastic thyroid cancer cell line HTC/C3 (JCBR Cell Bank) was cultured by using D-MEM High Glucose medium (Wako Pure Chemical Industries, Ltd.) containing 10% FBS in a 5% CO2 incubator under conditions of 37° C. When the cells became an approximately 80% confluent state, the cells were recovered by using trypsin-EDTA. A suspension was prepared by adding Hank's balanced salt solution containing 50% Matrigel to the cells so as to be 1.0×10^7 cells/mL. 0.1 mL of the obtained cell suspension was subcutaneously transplanted to the sides of the bodies of five nude mice (CAnN.Cg-Foxn1^nu/CrlCrlj, Charles River Laboratories Japan, Inc.) each of a control group, an E7386 12.5, 25 or 50 mg/kg alone administration group, a lenvatinib mesylate 10 mg/kg alone administration group, and a combined administration group of 12.5, 25 or 50 mg/kg E7386 and 10 mg/kg lenvatinib mesylate. From 11 days after the transplantation, E7386 (12.5, 25, or 50 mg/kg, b.d.s., 14 days, oral administration) and lenvatinib mesylate (10 mg/kg, q.d., 14 days, oral administration) were administered alone or in combination to the alone administration group or the combined administration group. For the administration, E7386 was dissolved in 0.1 mol/L hydrochloric acid, and lenvatinib mesylate was dissolved in 3 mmol/L hydrochloric acid. 0.1 mol/L hydrochloric acid (b.d.s., 14 days) was administered to the control group.
When the start day of administration was defined as day 1, the major axis and minor axis of tumor developed in each mouse were then measured at day 4, day 8, day 11, and day 15 by using Digimatic Caliper (Mitutoyo Corp.).
(§1) The tumor volume and the relative tumor volume (RTV) were calculated according to the following expressions. Tumor volume (mm^3)=Tumor major axis (mm)×Tumor minor axis^2 (mm^2)/2 Relative tumor volume (RTV)=Tumor volume at the measurement day/Tumor volume at the start day of administration

[2] = system: Human renal cell carcinoma line A-498 cells; assay: Antitumor effect in human renal cell carcinoma line A-498 subcutaneous transplantation model, nude mice
Procedure: Human renal cell carcinoma line A-498 cells (ATCC) were cultured by using RPMI1640 medium (Wako Pure Chemical Industries, Ltd.) containing 10% FBS in a 5% COz incubator under conditions of 37° C. When the cells became an approximately 100% confluent state, the cells were recovered by using trypsin-EDTA. A suspension was prepared by adding RPMI1640 medium containing 50% Matrigel to the cells so as to be 5.0×10^7 cells/mL. 0.1 mL of the obtained cell suspension was subcutaneously transplanted to the sides of the bodies of six nude mice (CAnN.Cg-Foxn1^nu/CrlCrlj, Charles River Laboratories Japan, Inc.) each of a control group, an E7386 50 mg/kg alone administration group, a lenvatinib mesylate 10 mg/kg alone administration group, and a combined administration group of 50 mg/kg E7386 and 10 mg/kg lenvatinib mesylate. From 27 days alter the transplantation, E7386 (50 mg/kg, q.d., 14 days, oral administration) and lenvatinib mesylate (10 mg/kg, q.d, 14 days, oral administration) were administered alone or in combination to the alone administration group or the combined administration group. For the administration, E7386 was dissolved in 0.1 mol/L hydrochloric acid, and lenvatinib mesylate was dissolved in 3 mmol/L hydrochloric acid. Any drug was not administered to the control group.
When the start day of administration was defined as day 1, the major axis and minor axis of tumor developed in each mouse were then measured at day 5, day 8, day 12, and day 15 by using Digimatic Caliper (Mitutoyo Corp.).
as §1

[3] = system: Human hepatocellular carcinoma line HepG2 cells; assay: Antitumor effect in human hepatocellular carcinoma line HepG2 subcutaneous transplantation model, nude mice
Procedure: Human hepatocellular carcinoma line HepG2 cells (JCRB Cell Bank) were cultured by using DMEM-Low glucose medium (Wako Pure Chemical Industries, Ltd.) containing 10% FBS in a 5% CO2 incubator under conditions of 37° C. When the cells became an approximately 80% confluent state, the cells were recovered by using trypsin-EDTA. A suspension was prepared by adding phosphate-buffered saline containing 50% Matrigel to the cells so as to be 10.0×10^7 cells/mL. 0.1 mL of the obtained cell suspension was subcutaneously transplanted to the sides of the bodies of five nude mice (CAnN.Cg-Foxn1^nu/CrlCrlj, Charles River Laboratories Japan, Inc.) each of a control group, an E7386 50 mg/kg alone administration group, a lenvatinib mesylate 10 mg/kg alone administration group, and a combined administration group of 50 mg/kg E7386 and 10 mg/kg lenvatinib mesylate. From 12 days after the transplantation, E7386 (50 mg/kg, b.d.s., 14 days, oral administration) and lenvatinib mesylate (10 mg/kg, q.d., 14 days, oral administration) were administered alone or in combination to the alone administration group or the combined administration group. For the administration, E7386 was dissolved in 0.1 mol/L hydrochloric acid, and lenvatinib mesylate was dissolved in 3 mmol/L hydrochloric acid. Any drug was not administered to the control group.
When the start day of administration was defined as day 1, the major axis and minor axis of tumor developed in each mouse were then measured at day 4, day 7, day 9, day 13, and day 15 by using Digimatic Caliper (Mitutoyo Corp.).
as §1

[4] = system: Human hepatocellular carcinoma line HepG2 cells; assay: Tumor vessel suppressive effect (CD31/α-SMA co-staining, MVD and PCI) in human hepatocellular carcinoma HepG2 subcutaneous transplantation model, nude mice; conditions: FIG. 22; lenvatinib mesylate 10 mg/kg q.d. alone, 14 days oral; vs control group
Procedure: For the administration, E7386 was dissolved in 0.1 mol/L hydrochloric acid, and lenvatinib mesylate was dissolved in 3 mmol/L hydrochloric acid. Any drug was not administered to the control group.

[5] = Day 4, E7386 50 mg/kg b.d.s. oral alone
[6] = Day 15, E7386 50 mg/kg b.d.s. oral alone
[7] = Day 4, lenvatinib mesylate 10 mg/kg q.d. oral alone
[8] = Day 8, lenvatinib mesylate 10 mg/kg q.d. oral alone
[9] = Day 15, lenvatinib mesylate 10 mg/kg q.d. oral alone

C=CCN1CC(=O)N2[C@@H](Cc3ccc(O)cc3F)C(=O)N(Cc3cccc(N4CC(N5CCN(CC)CC5)C4)n3)C[C@@H]2N1C(=O)NCc1ccccc1 [E7386, (6S,9aS)—N-Benzyl-8-({6-[3-(4-ethylpiperazin-1-yl)azetidin-1-yl]pyridin-2-yl}methyl)-6-(2-fluoro-4-hydroxybenzyl)-4,7-dioxo-2-(prop-2-en-1-yl)hexahydro-2H-pyrazino[2,1-c][1,2,4]triazine-1(6H)-carboxamide]
Relative tumor volume (RTV), mean±SD ([1]; Day 4, E7386 12.5 mg/kg b.d.s. oral alone): 1.68 ± 0.13
Relative tumor volume (RTV), mean±SD ([1]; Day 4, E7386 25 mg/kg b.d.s. oral alone): 1.72 ± 0.10
Relative tumor volume (RTV), mean±SD [1, 5]: 1.74 ± 0.09
Relative tumor volume (RTV), mean±SD ([1]; Day 8, E7386 12.5 mg/kg b.d.s. oral alone): 4.02 ± 0.40
Relative tumor volume (RTV), mean±SD ([1]; Day 8, E7386 25 mg/kg b.d.s. oral alone): 3.99 ± 0.62
Relative tumor volume (RTV), mean±SD ([1]; Day 8, E7386 50 mg/kg b.d.s. oral alone): 4.00 ± 0.66
Relative tumor volume (RTV), mean±SD ([1]; Day 11, E7386 12.5 mg/kg b.d.s. oral alone): 6.27 ± 0.93
Relative tumor volume (RTV), mean±SD ([1]; Day 11, E7386 25 mg/kg b.d.s. oral alone): 6.44 ± 1.09
Relative tumor volume (RTV), mean±SD ([1]; Day 11, E7386 50 mg/kg b.d.s. oral alone): 5.85 ± 1.42
Relative tumor volume (RTV), mean±SD ([1]; Day 15, E7386 12.5 mg/kg b.d.s. oral alone): 8.58 ± 2.48
Relative tumor volume (RTV), mean±SD ([1]; Day 15, E7386 25 mg/kg b.d.s. oral alone): 8.81 ± 2.14
Relative tumor volume (RTV), mean±SD [1, 6]: 7.83 ± 2.28
Relative tumor volume (RTV), mean±SD ([2]; Day 5, E7386 50 mg/kg q.d. oral alone): 1.33 ± 0.24
Relative tumor volume (RTV), mean±SD ([2]; Day 8, E7386 50 mg/kg q.d. oral alone): 1.70 ± 0.26
Relative tumor volume (RTV), mean±SD ([2]; Day 12, E7386 50 mg/kg q.d. oral alone): 2.04 ± 0.29
Relative tumor volume (RTV), mean±SD ([2]; Day 15, E7386 50 mg/kg q.d. oral alone): 2.29 ± 0.33
Relative tumor volume (RTV), mean±SD [3, 5]: 1.45 ± 0.23
Relative tumor volume (RTV), mean±SD ([3]; Day 7, E7386 50 mg/kg b.d.s. oral alone): 3.05 ± 0.57
Relative tumor volume (RTV), mean±SD ([3]; Day 9, E7386 50 mg/kg b.d.s. oral alone): 3.96 ± 0.53
Relative tumor volume (RTV), mean±SD ([3]; Day 13, E7386 50 mg/kg b.d.s. oral alone): 5.60 ± 1.02
Relative tumor volume (RTV), mean±SD [3, 6]: 6.23 ± 1.39

COc1cc2nccc(Oc3ccc(NC(=O)NC4CC4)c(Cl)c3)c2cc1C(N)=O [Lenvatinib mesylate, 4-(3-chloro-4-(cyclopropylaminocarbonyl)aminophenoxy)-7-methoxy-6-quinolinecarboxamide, reference compound]
Relative tumor volume (RTV), mean±SD [1, 7]: 1.71 ± 0.10
Relative tumor volume (RTV), mean±SD [1, 8]: 3.57 ± 0.54
Relative tumor volume (RTV), mean±SD ([1]; Day 11, lenvatinib mesylate 10 mg/kg q.d. oral alone): 5.15 ± 1.07
Relative tumor volume (RTV), mean±SD [1, 9]: 6.23 ± 1.71
PCI (pericyte coverage index) (in words) [4]: markedly increased; also recorded: statistically significantly increased pericyte coverage as compared with the control group
Relative tumor volume (RTV), mean±SD ([2]; Day 5, lenvatinib mesylate 10 mg/kg q.d. oral alone): 1.08 ± 0.18
Relative tumor volume (RTV), mean±SD [2, 8]: 1.35 ± 0.25
Relative tumor volume (RTV), mean±SD ([2]; Day 12, lenvatinib mesylate 10 mg/kg q.d. oral alone): 1.21 ± 0.18
Relative tumor volume (RTV), mean±SD [2, 9]: 1.20 ± 0.21
Relative tumor volume (RTV), mean±SD [3, 7]: 1.10 ± 0.08
Relative tumor volume (RTV), mean±SD ([3]; Day 7, lenvatinib mesylate 10 mg/kg q.d. oral alone): 1.60 ± 0.94
Relative tumor volume (RTV), mean±SD ([3]; Day 9, lenvatinib mesylate 10 mg/kg q.d. oral alone): 2.07 ± 0.88
Relative tumor volume (RTV), mean±SD ([3]; Day 13, lenvatinib mesylate 10 mg/kg q.d. oral alone): 2.70 ± 1.47
Relative tumor volume (RTV), mean±SD [3, 9]: 3.43 ± 1.46
